Reference: ChEMBL document CHEMBL1697731, “Cheminformatics analysis of assertions mined from literature that describe drug-induced liver injury in different species” (Chem Res Toxicol, 2010)

Assays:
Hepatotoxicity [1] = assay: Literature-mined compound from Fourches et al multi-species drug-induced liver injury (DILI) dataset, effect in non-rodents
Hepatotoxicity [2] = assay: Literature-mined compound from Fourches et al multi-species drug-induced liver injury (DILI) dataset, effect in rodents; settings: rodentia
Hepatotoxicity [3] = assay: Literature-mined compound from Fourches et al multi-species drug-induced liver injury (DILI) dataset, effect in humans; settings: human

| SMILES | Hepatotoxicity (Hepatotoxicity [1]; Liver) | Hepatotoxicity (Hepatotoxicity [2]; Liver) | Hepatotoxicity (Hepatotoxicity [3]; Liver) | Hepatotoxicity (Hepatotoxicity [1]) | Hepatotoxicity (Hepatotoxicity [2]) | Hepatotoxicity (Hepatotoxicity [3]) |
| --- | --- | --- | --- | --- | --- | --- |
| CC(C)(C)NC(=O)[C@@H]1C[C@@H]2CCCC[C@@H]2CN1C[C@@H](O)[C@H](Cc1ccccc1)NC(=O)[C@H](CC(N)=O)NC(=O)c1ccc2ccccc2n1 | no drug-induced liver injury reported | no drug-induced liver injury reported | drug-induced liver injury reported | – | – | – |
| CC(C)(Oc1ccc(CCNC(=O)c2ccc(Cl)cc2)cc1)C(=O)O [BEZAFIBRATE] | – | – | – | no drug-induced liver injury reported | drug-induced liver injury reported | drug-induced liver injury reported |
| C[C@H]1O[C@@H](O[C@H]2[C@@H](O)C[C@H](O[C@H]3[C@@H](O)C[C@H](O[C@H]4CC[C@@]5(C)[C@H](CC[C@@H]6[C@@H]5CC[C@]5(C)[C@@H](C7=CC(=O)OC7)CC[C@]65O)C4)O[C@@H]3C)O[C@@H]2C)C[C@H](O)[C@@H]1O [DIGITOXIN] | – | – | – | no drug-induced liver injury reported | drug-induced liver injury reported | no drug-induced liver injury reported |
| CN1C(=O)OC(C)(C)C1=O [TRIMETHADIONE] | – | – | – | no drug-induced liver injury reported | drug-induced liver injury reported | drug-induced liver injury reported |
| C[C@]12CC[C@H](O)CC1=CC[C@@H]1[C@@H]2CC[C@]2(C)C(=O)CC[C@@H]12 [PRASTERONE] | – | – | – | no drug-induced liver injury reported | drug-induced liver injury reported | drug-induced liver injury reported |
| O=C1Nc2ccccc2C1(c1ccc(O)cc1)c1ccc(O)cc1 [OXYPHENISATINE] | – | – | – | no drug-induced liver injury reported | no drug-induced liver injury reported | drug-induced liver injury reported |
| C[C@H](NC(=O)C(=O)Nc1ccccc1C(C)(C)C)C(=O)N[C@@H](CC(=O)O)C(=O)COc1c(F)c(F)cc(F)c1F | – | – | – | no drug-induced liver injury reported | drug-induced liver injury reported | no drug-induced liver injury reported |
| CCC(C)C(C)(COC(N)=O)COC(N)=O (configuration not stated) [MEBUTAMATE] | – | – | – | no drug-induced liver injury reported | drug-induced liver injury reported | no drug-induced liver injury reported |
| CCCCC(CC)CN1CN(CC(CC)CCCC)CC(C)(N)C1 (configuration not stated) [HEXETIDINE] | – | – | – | no drug-induced liver injury reported | drug-induced liver injury reported | no drug-induced liver injury reported |
| Clc1ccccc1C(c1ccccc1)(c1ccccc1)n1ccnc1 [CLOTRIMAZOLE] | – | – | – | no drug-induced liver injury reported | drug-induced liver injury reported | no drug-induced liver injury reported |
| c1ccoc1 [FURAN] | – | – | – | no drug-induced liver injury reported | drug-induced liver injury reported | no drug-induced liver injury reported |
| CCN(CC)CCNC(=O)c1ccc(N)cc1 [PROCAINAMIDE] | – | – | – | no drug-induced liver injury reported | drug-induced liver injury reported | drug-induced liver injury reported |
| CC(=O)[C@H]1CC[C@H]2[C@@H]3C=CC4=CC(=O)CC[C@@]4(C)[C@@H]3CC[C@]12C [DYDROGESTERONE] | – | – | – | no drug-induced liver injury reported | drug-induced liver injury reported | drug-induced liver injury reported |
| C[C@H]1C[C@@H]2[C@H]([C@@H](O)C[C@@]3(C)[C@H]2CC[C@]3(O)C(=O)CO)[C@@]2(C)C=CC(=O)C=C12 [METHYLPREDNISOLONE] | – | – | – | no drug-induced liver injury reported | drug-induced liver injury reported | drug-induced liver injury reported |
| CCOC(=O)[N-]c1cn(N2CCOCC2)n[o+]1 [MOLSIDOMINE] | – | – | – | no drug-induced liver injury reported | drug-induced liver injury reported | drug-induced liver injury reported |
| CC(C)NNC(=O)c1ccncc1 [IPRONIAZID] | – | – | – | no drug-induced liver injury reported | drug-induced liver injury reported | drug-induced liver injury reported |
| CSCC[C@H](NC(=O)[C@H](Cc1c[nH]c2ccccc12)NC(=O)CCNC(=O)OC(C)(C)C)C(=O)N[C@@H](CC(=O)O)C(=O)N[C@@H](Cc1ccccc1)C(N)=O [PENTAGASTRIN] | – | – | – | no drug-induced liver injury reported | drug-induced liver injury reported | drug-induced liver injury reported |

| SMILES | Hepatotoxicity (Hepatotoxicity [1]; Liver) | Hepatotoxicity (Hepatotoxicity [2]; Liver) | Hepatotoxicity (Hepatotoxicity [3]; Liver) | Hepatotoxicity (Hepatotoxicity [1]) | Hepatotoxicity (Hepatotoxicity [2]) | Hepatotoxicity (Hepatotoxicity [3]) |
| --- | --- | --- | --- | --- | --- | --- |
| OC[C@@H](O)[C@@H](O)[C@H](O)[C@H](O)CO [MANNITOL] | – | – | – | drug-induced liver injury reported | drug-induced liver injury reported | drug-induced liver injury reported |
| COc1cc2c(Nc3ccc(Br)cc3F)ncnc2cc1OCC1CCN(C)CC1 [VANDETANIB] | – | – | – | no drug-induced liver injury reported | no drug-induced liver injury reported | drug-induced liver injury reported |
| COC1=C(OC)C(=O)C(C/C=C(\C)CC/C=C(\C)CC/C=C(\C)CC/C=C(\C)CC/C=C(\C)CC/C=C(\C)CC/C=C(\C)CC/C=C(\C)CC/C=C(\C)CCC=C(C)C)=C(C)C1=O [UBIDECARENONE] | – | – | – | no drug-induced liver injury reported | drug-induced liver injury reported | no drug-induced liver injury reported |
| Cc1ccc(C(=O)Nc2ccc(S(=O)(=O)O)c3cc(S(=O)(=O)O)cc(S(=O)(=O)O)c23)cc1NC(=O)c1cccc(NC(=O)Nc2cccc(C(=O)Nc3cc(C(=O)Nc4ccc(S(=O)(=O)O)c5cc(S(=O)(=O)O)cc(S(=O)(=O)O)c45)ccc3C)c2)c1 [SURAMIN] | – | – | – | drug-induced liver injury reported | drug-induced liver injury reported | drug-induced liver injury reported |
| Nc1ncnc2nc[nH]c12 [ADENINE] | – | – | – | no drug-induced liver injury reported | drug-induced liver injury reported | no drug-induced liver injury reported |
| C[C@@H]1O[C@@H](O[C@@H]2C=C3CC[C@@H]4[C@H](CC[C@]5(C)[C@@H](c6ccc(=O)oc6)CC[C@]45O)[C@@]3(C)CC2)[C@H](O)[C@H](O)[C@H]1O[C@@H]1O[C@H](CO)[C@@H](O)[C@H](O)[C@H]1O | – | – | – | no drug-induced liver injury reported | drug-induced liver injury reported | no drug-induced liver injury reported |
| COc1ncnc(NS(=O)(=O)c2ccc(N)cc2)c1OC [SULFADOXINE] | – | – | – | drug-induced liver injury reported | no drug-induced liver injury reported | no drug-induced liver injury reported |
| O=C1[C@H](CC[C@H](O)c2ccc(F)cc2)[C@@H](c2ccc(O)cc2)N1c1ccc(F)cc1 [EZETIMIBE] | – | – | – | drug-induced liver injury reported | drug-induced liver injury reported | drug-induced liver injury reported |
| CSc1ccc2c(c1)N(CCC1CCCCN1C)c1ccccc1S2 (configuration not stated) [THIORIDAZINE] | – | – | – | no drug-induced liver injury reported | drug-induced liver injury reported | drug-induced liver injury reported |
| O=C(O)C[C@H](O)C[C@H](O)/C=C/c1c(C2CC2)nc2ccccc2c1-c1ccc(F)cc1 [PITAVASTATIN] | – | – | – | no drug-induced liver injury reported | drug-induced liver injury reported | drug-induced liver injury reported |
| CC(=O)Nc1c(I)cc(I)c(C(=O)[O-])c1I.O.[Na+] [ACETRIZOATE SODIUM] | – | – | – | no drug-induced liver injury reported | drug-induced liver injury reported | no drug-induced liver injury reported |
| CC(C(=O)O)c1ccc(N2CC=CC2)c(Cl)c1 (configuration not stated) [PIRPROFEN] | – | – | – | no drug-induced liver injury reported | drug-induced liver injury reported | drug-induced liver injury reported |
| O=C(OC[C@H]1O[C@@H](OC(=O)c2cc(O)c(O)c(OC(=O)c3cc(O)c(O)c(O)c3)c2)[C@H](OC(=O)c2cc(O)c(O)c(OC(=O)c3cc(O)c(O)c(O)c3)c2)[C@@H](OC(=O)c2cc(O)c(O)c(OC(=O)c3cc(O)c(O)c(O)c3)c2)[C@@H]1OC(=O)c1cc(O)c(O)c(OC(=O)c2cc(O)c(O)c(O)c2)c1)c1cc(O)c(O)c(OC(=O)c2cc(O)c(O)c(O)c2)c1 [TANNIC ACID] | – | – | – | drug-induced liver injury reported | drug-induced liver injury reported | no drug-induced liver injury reported |
| O=C(NC(Cc1cc(=O)[nH]c2ccccc12)C(=O)O)c1ccc(Cl)cc1 (configuration not stated) [REBAMIPIDE] | – | – | – | no drug-induced liver injury reported | drug-induced liver injury reported | no drug-induced liver injury reported |
| CC(C)O [ISOPROPYL ALCOHOL] | – | – | – | no drug-induced liver injury reported | drug-induced liver injury reported | no drug-induced liver injury reported |
| CC(C)[C@@H]1NC(=O)[C@H](CCCCN)NC(=O)[C@@H](Cc2c[nH]c3ccccc23)NC(=O)[C@H](Cc2ccc(O)cc2)NC(=O)[C@@H](NC(=O)[C@H](N)Cc2ccc3ccccc3c2)CSSC[C@@H](C(=O)N[C@H](C(N)=O)[C@@H](C)O)NC1=O [LANREOTIDE] | – | – | – | no drug-induced liver injury reported | no drug-induced liver injury reported | drug-induced liver injury reported |
| COC(=O)C1=C(C)NC(C)=C(C(=O)OCC(C)C)C1c1ccccc1[N+](=O)[O-] (configuration not stated) [NISOLDIPINE] | – | – | – | drug-induced liver injury reported | drug-induced liver injury reported | drug-induced liver injury reported |
